Experimental data as given in the CheMixHub viscosity set.

Experiment: xn = mol fraction of the nth substance listed

NCc1ccccc1 + CCC(C)CO
viscosity [mPa·s], 101.33 kPa
Details | x1 = 0.1 | x1 = 0.2 | x1 = 0.3001 | x1 = 0.3999 | x1 = 0.5 | x1 = 0.6 | x1 = 0.6998 | x1 = 0.7989 | x1 = 0.8999
298.15 K | 4.232 | 3.772 | 3.382 | 3.039 | 2.708 | 2.435 | 2.181 | 1.984 | 1.796
303.15 K | 3.472 | 3.103 | 2.773 | 2.478 | 2.243 | 2.048 | 1.849 | 1.691 | 1.572
308.15 K | 2.453 | 2.227 | 2.02 | 1.837 | 1.711 | 1.595 | 1.5 | 1.423 | 1.377

NCc1ccccc1 + CCCC(C)O
viscosity [mPa·s], 101.33 kPa
Details | x1 = 0.1 | x1 = 0.2002 | x1 = 0.3001 | x1 = 0.4001 | x1 = 0.4997 | x1 = 0.6 | x1 = 0.6989 | x1 = 0.8 | x1 = 0.8998
298.15 K | 3.179 | 2.906 | 2.676 | 2.466 | 2.274 | 2.11 | 1.976 | 1.854 | 1.75
303.15 K | 2.626 | 2.395 | 2.192 | 2.038 | 1.893 | 1.765 | 1.666 | 1.587 | 1.532
308.15 K | 2.199 | 2.034 | 1.884 | 1.759 | 1.642 | 1.559 | 1.482 | 1.436 | 1.401

CCOC(=O)CCBr + CCCCCC
303.15 K, 101 kPa
Details | viscosity [mPa·s]
x1 = 0.2142 | 0.3919
x1 = 0.4043 | 0.55
x1 = 0.5019 | 0.674
x1 = 0.6029 | 0.8315
x1 = 0.8046 | 1.263

CCCCCCCCCCCCCCCCCC + CCCCCCC
101 kPa, x2 = 0.5
Details | viscosity [mPa·s]
298 K | 1.73
318 K | 1.241

CCCCCCCCCc1ccccc1 + CCCCCCC
313.15 K, 100 kPa
Details | viscosity [mPa·s]
x2 = 0.097 | 1.82
x2 = 0.265 | 1.398
x2 = 0.405 | 1.111
x2 = 0.523 | 0.918
x2 = 0.671 | 0.691
x2 = 0.754 | 0.59
x2 = 0.86 | 0.411

CC(CC(C)(C)C)CP(=O)([O-])CC(C)CC(C)(C)C.CCCCCCCC[P+](C)(C)C (stereo unspecified) + CCCCCCCCCCCC
viscosity [mPa·s], 101 kPa
Details | 298.15 K | 303.15 K | 308.15 K | 313.15 K | 318.15 K | 323.15 K
x2 = 0.24 | 172 | 129 | 99.8 | 79.4 | 63.3 | 51.3
x2 = 0.41 | 58.2 | 46 | 36.5 | 30 | 25 | 21.3
x2 = 0.55 | 23.8 | 20.1 | 17.1 | 14.9 | 12.9 | –

CCCCCC(C)O (stereo unspecified) + CCCCCCCCCCCC
298.15 K, 101 kPa
Details | viscosity [mPa·s]
x2 = 0.0554 | 4.35
x2 = 0.0998 | 3.85
x2 = 0.1555 | 3.3
x2 = 0.1998 | 2.92
x2 = 0.2554 | 2.51
x2 = 0.2998 | 2.23
x2 = 0.3554 | 1.94
x2 = 0.4 | 1.74
x2 = 0.4555 | 1.54
x2 = 0.4999 | 1.42
x2 = 0.5554 | 1.3
x2 = 0.5998 | 1.22
x2 = 0.6554 | 1.16
x2 = 0.6998 | 1.12
x2 = 0.7553 | 1.09
x2 = 0.7999 | 1.08
x2 = 0.8554 | 1.07
x2 = 0.8995 | 1.06
x2 = 0.9546 | 1.11

CCCCCCCCCc1ccccc1 + CCCCCCCCCCCC
viscosity [mPa·s], 102 kPa
Details | x1 = 0.1006 | x1 = 0.2 | x1 = 0.3002 | x1 = 0.4001 | x1 = 0.5 | x1 = 0.5999 | x1 = 0.7004 | x1 = 0.8064 | x1 = 0.8998
293.15 K | 1.59 | 1.69 | 1.81 | 1.94 | 2.09 | 2.25 | 2.44 | 2.66 | 2.88
303.15 K | 1.33 | 1.41 | 1.5 | 1.61 | 1.72 | 1.84 | 1.99 | 2.15 | 2.31
313.15 K | 1.13 | 1.2 | 1.27 | 1.35 | 1.44 | 1.54 | 1.65 | 1.78 | 1.9
323.15 K | 0.971 | 1.03 | 1.09 | 1.16 | 1.23 | 1.31 | 1.4 | 1.5 | 1.59

CCCCCCCCCc1ccccc1 + CCCCCCCCCCCCCCCC
viscosity [mPa·s], 102 kPa
Details | x1 = 0.1006 | x1 = 0.2005 | x1 = 0.3005 | x1 = 0.4001 | x1 = 0.5008 | x1 = 0.6006 | x1 = 0.6997 | x1 = 0.7978 | x1 = 0.9003
293.15 K | 3.4 | 3.32 | 3.28 | 3.22 | 3.18 | 3.15 | 3.13 | 3.12 | 3.12
303.15 K | 2.71 | 2.65 | 2.62 | 2.58 | 2.54 | 2.52 | 2.51 | 2.5 | –
313.15 K | 2.2 | 2.16 | 2.13 | 2.11 | 2.09 | 2.06 | 2.05 | 2.05 | 2.05
323.15 K | 1.83 | 1.8 | 1.78 | 1.76 | 1.74 | 1.73 | 1.72 | 1.71 | 1.71

CCCCCCCCCCCCCCCCCCCc1ccccc1 + CCCCCCCCCCCCCCCCCCC
313.15 K, 101 kPa
Details | viscosity [mPa·s]
x2 = 0.1066 | 7.51
x2 = 0.1924 | 7.01
x2 = 0.433 | 5.74
x2 = 0.4887 | 5.47
x2 = 0.6377 | 4.83
x2 = 0.7465 | 4.38
x2 = 0.8251 | 4.09

CC(C)NC(C)C + CCCCCCCCCCO
viscosity [mPa·s], 101 kPa
Details | 298.15 K | 303.15 K | 308.15 K
x1 = 0.0531 | 9.942 | 8.148 | 6.888
x1 = 0.1065 | 8.911 | 7.421 | 6.317
x1 = 0.1557 | 8.093 | 6.67 | 5.66
x1 = 0.2072 | 7.186 | 5.835 | 4.947
x1 = 0.2506 | 6.335 | 5.168 | 4.413
x1 = 0.3127 | 5.184 | 4.271 | 3.777
x1 = 0.4084 | 3.737 | 3.133 | 2.732
x1 = 0.5054 | 2.653 | 2.228 | 2.059
x1 = 0.6066 | 1.752 | 1.522 | 1.375
x1 = 0.7056 | 1.183 | 1.059 | 0.956
x1 = 0.8036 | 0.838 | 0.75 | 0.702
x1 = 0.853 | 0.689 | 0.628 | 0.587
x1 = 0.9073 | 0.531 | 0.494 | 0.467
x1 = 0.9521 | 0.459 | 0.43 | 0.358

CCCCCCCCCCCO + CCCCCCCCCCO
Details | viscosity [mPa·s]
293.15 K, 101.33 kPa, x2 = 0.1426 | 16.47
293.15 K, 101.33 kPa, x2 = 0.4429 | 15.7
293.15 K, 101.33 kPa, x2 = 0.6078 | 15.37
293.15 K, 101.33 kPa, x2 = 0.7475 | 15.08
293.15 K, 101.33 kPa, x2 = 0.889 | 14.71
298.15 K, 101 kPa, x2 = 0.6999 | 12.35
298.15 K, 101.33 kPa, x2 = 0.1426 | 13.44
298.15 K, 101.33 kPa, x2 = 0.298 | 13.14
298.15 K, 101.33 kPa, x2 = 0.7475 | 12.33
298.15 K, 101.8 kPa, x2 = 0.1083 | 13.95
298.15 K, 101.8 kPa, x2 = 0.3183 | 13.43
298.15 K, 101.8 kPa, x2 = 0.5207 | 12.98
298.15 K, 101.8 kPa, x2 = 0.7164 | 12.54
308.15 K, 101.8 kPa, x2 = 0.1083 | 9.593
308.15 K, 101.8 kPa, x2 = 0.3183 | 9.242
308.15 K, 101.8 kPa, x2 = 0.5207 | 8.963
308.15 K, 101.8 kPa, x2 = 0.7164 | 8.674
308.15 K, 101.8 kPa, x2 = 0.907 | 8.384
318.15 K, 101.8 kPa, x2 = 0.1083 | 6.748
318.15 K, 101.8 kPa, x2 = 0.3183 | 6.559
318.15 K, 101.8 kPa, x2 = 0.5207 | 6.332
318.15 K, 101.8 kPa, x2 = 0.7164 | 6.148
318.15 K, 101.8 kPa, x2 = 0.907 | 5.962

CCCCCCCCCCCO + CCCCCCCCCO
viscosity [mPa·s]
Details | x2 = 0.116 | x2 = 0.3375 | x2 = 0.5442 | x2 = 0.7372 | x2 = 0.7995 | x2 = 0.9152
298.15 K, 101 kPa | – | – | – | – | 10.35 | –
298.15 K, 101.8 kPa | 13.57 | 12.52 | – | – | – | 9.874
308.15 K, 101.8 kPa | 9.384 | 8.667 | 8.041 | 7.476 | – | 6.965
318.15 K, 101.8 kPa | 6.631 | 6.157 | 5.752 | 5.366 | – | 5.017

CC(C)NC(C)C + CCCCCCCCO
viscosity [mPa·s], 101 kPa
Details | 298.15 K | 303.15 K | 308.15 K
x1 = 0.0552 | 6.422 | 5.366 | 4.483
x1 = 0.1034 | 5.774 | 4.866 | 4.045
x1 = 0.1579 | 5.107 | 4.286 | 3.62
x1 = 0.2037 | 4.51 | 3.87 | 3.235
x1 = 0.2551 | 3.898 | 3.326 | 2.826
x1 = 0.3074 | 3.339 | 2.871 | 2.455
x1 = 0.4058 | 2.441 | 2.128 | 1.84
x1 = 0.5058 | 1.758 | 1.535 | 1.352
x1 = 0.606 | 1.265 | 1.143 | 1.046
x1 = 0.7025 | 0.916 | 0.84 | 0.76
x1 = 0.8044 | 0.664 | 0.616 | 0.58
x1 = 0.8545 | 0.571 | 0.537 | 0.502
x1 = 0.8931 | 0.509 | 0.487 | 0.452
x1 = 0.9418 | 0.442 | 0.431 | 0.401

CCCCCCCCCCCO + CCCCCCCCO
viscosity [mPa·s]
Details | 293.15 K | 298.15 K | 308.15 K | 318.15 K
101 kPa, x2 = 0.1003 | – | 13.35 | – | –
101 kPa, x2 = 0.6998 | 10.95 | – | – | –
101.8 kPa, x2 = 0.1273 | – | 13.25 | 9.151 | 6.474
101.8 kPa, x2 = 0.3622 | – | 11.61 | 8.096 | 5.781
101.8 kPa, x2 = 0.5698 | – | 10.24 | 7.208 | 5.187
101.8 kPa, x2 = 0.756 | – | 9.094 | 6.447 | 4.673
101.8 kPa, x2 = 0.9212 | – | 7.658 | 5.5 | 4.027

CCCCCCCCCCCO + CCCCCCCO
viscosity [mPa·s]
Details | x2 = 0.1397 | x2 = 0.2254 | x2 = 0.388 | x2 = 0.5976 | x2 = 0.7764 | x2 = 0.9311
293.15 K, 101 kPa | – | 14.95 | – | – | – | –
298.15 K, 101.8 kPa | 12.82 | – | 10.49 | 8.805 | 7.365 | 6.099
308.15 K, 101.8 kPa | 8.867 | – | 7.363 | 6.26 | 5.311 | 4.433
318.15 K, 101.8 kPa | 6.299 | – | 5.309 | 4.554 | 3.906 | 3.289
